Assays:
[1] = tested on: 3D7 P. falciparum strain; assay: parasite proliferation assay in infected red blood cells (SYBR Green I); assay type: cell-based, Plasmodium falciparum; conditions: Plasmodium falciparum, 3D7, Erythrocyte, 3D7 strain; read-out: EC50 3D7 strain
From the text: (§1) Compounds of the invention can be assayed to measure their capacity to inhibit proliferation of parasitemia in infected red blood cells. The proliferation is quantified by the addition of SYBR Green I (INVITROGEN)® dye which has a high affinity for double stranded DNA.
The following assay illustrates the invention without in any way limiting the scope of the invention. This parasite proliferation assay measures the increase in parasite DNA content using a DNA intercalating dye, SYBR Green®.
3D7 P. falciparum strain is grown in complete culturing media until parasitemia reaches 3% to 8% with O+ human erythrocytes. 20 μl of screening media is dispensed into 384 well assay plates. […] 10 μl of lysis buffer (saponin, triton-X, EDTA) containing a 10× solution of SYBR Green I® in RPMI media is dispensed into the plates. The plates are lidded and kept at room temperature overnight for the lysis of the infected red blood cells.

[2] = tested on: W2 strain; assay: parasite proliferation assay in infected red blood cells (SYBR Green I), W2 strain; assay type: cell-based; conditions: Erythrocyte
From the text: as §1

CNCC(=O)N1CCn2c(nc(-c3ccc(F)cc3)c2Nc2ccc(Cl)cc2)C1 [Compound 77]
EC50 [1]: 60 nM
EC50 [2]: 39 nM

CC1(C)c2nc(-c3ccc(F)cc3)c(Nc3ccc(C(F)(F)F)c(Cl)c3)n2CCN1C(=O)CN [Compound 658]
EC50 [1]: 5 nM
EC50 ([2]; Plasmodium falciparum): 6 nM

Cc1ccc(Nc2c(-c3ccc(F)cc3)nc3n2CCN(C(=O)C(C)Nc2c(C)cccc2C)C3)cc1 (stereo not shown) [Compound 380]
EC50 [1]: 1130 nM
EC50 [2]: 1790 nM

N[C@@H](Cc1ccc(F)c(F)c1)C(=O)N1CCn2c(nc(-c3ccc(F)cc3)c2Nc2ccc(Cl)c(F)c2)C1 [Compound 319]
EC50 [1]: 40 nM
EC50 [2]: 27 nM

COc1ccccc1-c1nc2n(c1Nc1ccc(C)cc1)CCN(C(=O)CN)C2 [Compound 381]
EC50 [1]: 1970 nM
EC50 [2]: 1800 nM

Cc1ccc(Nc2c(-c3ccc(F)cc3)nc3n2CCN(Cc2ccc(N4CCOCC4)cc2)C3)cc1 [Compound 180]
EC50 [1]: 730 nM
EC50 [2]: 609 nM

O=C(C1COCCN1)N1CCn2c(nc(-c3ccc(F)cc3)c2Nc2ccc(Cl)c(F)c2)C1 (stereo not shown) [Compound 323]
EC50 [1]: 1730 nM
EC50 [2]: 1330 nM

Cc1cc(Nc2c(-c3ccc(F)cc3)nc3n2CC(=O)N(CCN(C)C)C3(C)C)ccc1Cl [Compound 684]
EC50 [1]: 30 nM
EC50 ([2]; Plasmodium falciparum): 17 nM

O=C(c1ccc2ncccc2c1)N1CCn2c(nc(-c3ccc(F)cc3)c2Nc2ccc(Cl)c(F)c2)C1 [Compound 370]
EC50 [1]: 4350 nM
EC50 [2]: 8340 nM

Cc1ccc(Nc2c(-c3ccc(F)cc3)nc3n2CCN(C(=O)N2CCC(N4CCCC(C)C4)CC2)C3)cc1 (stereo not shown) [Compound 273]
EC50 [1]: 3330 nM
EC50 [2]: 3470 nM

CC1(C)CN(C(=O)CN)Cc2nc(-c3cccc(F)c3)c(Nc3ccc(F)c(Cl)c3)n21 [Compound 624]
EC50 [1]: 100 nM
EC50 ([2]; Plasmodium falciparum): 167 nM

Cc1ccc(Nc2c(-c3ccc(F)cc3)nc3n2CCN(C(=O)[C@@H](O)C(C)C)C3)cc1 [Compound 204]
EC50 [1]: 10 nM
EC50 [2]: 10 nM

CC(C)[C@@H]1c2nc(-c3ccc(F)cc3)c(Nc3ccc(Cl)c(F)c3)n2CCN1C(=O)CN [Compound 602]
EC50 [1]: 170 nM
EC50 ([2]; Plasmodium falciparum): 204 nM

CC1(C)c2nc(-c3ccc(F)cc3)c(Nc3ccc(OC(F)(F)F)cc3)n2CCN1C(=O)CN [Compound 649]
EC50 [1]: 24 nM
EC50 ([2]; Plasmodium falciparum): 18 nM

NCC(=O)N1CCn2c(nc(-c3ccc(Br)cc3)c2Nc2ccc(F)cc2)C1 [Compound 54]
EC50 [1]: 1290 nM
EC50 [2]: 764 nM

Fc1ccc(-c2nc3n(c2Nc2ccc(Cl)cc2)CCNC3)cc1 [Example 262, N-(4-chlorophenyl)-2-(4-fluorophenyl)-5,6,7,8-tetrahydroimidazo[1,2-a]pyrazin-3-mine]
EC50 [1]: 240 nM
EC50 [2]: 267 nM

CC(C)(N)C(=O)N1CCn2c(nc(-c3ccccc3F)c2Nc2ccc(F)cc2)C1 [Compound 10]
EC50 [1]: 1390 nM
EC50 [2]: 1280 nM

CCC(=O)N[C@H](C(=O)N1CCn2c(nc(-c3ccc(F)cc3)c2Nc2ccc(C)cc2)C1)c1ccccc1 [Compound 290]
EC50 [1]: 440 nM
EC50 [2]: 397 nM

O=C([C@H]1CCCO1)N1CCn2c(nc(-c3ccc(F)cc3)c2Nc2ccc(Cl)c(F)c2)C1 [Compound 356]
EC50 [1]: 1260 nM
EC50 [2]: 872 nM

CCCNCC(=O)N1CCn2c(nc(-c3ccc(F)cc3)c2Nc2ccc(C)cc2)C1 [Compound 307]
EC50 [1]: 30 nM
EC50 [2]: 22 nM

NC(C(=O)N1CCn2c(nc(-c3ccc(F)cc3)c2Nc2ccc(Cl)c(F)c2)C1)c1ccc(Cl)c(Cl)c1 (stereo not shown) [Compound 365]
EC50 [1]: 610 nM
EC50 [2]: 260 nM

CN1CCn2c(nc(-c3ccc(F)cc3)c2Nc2ccc(F)cc2)C1(C)C [Compound 606]
EC50 [1]: 20 nM
EC50 ([2]; Plasmodium falciparum): 28 nM

Cc1ccc(-c2c(-c3ccc(F)cc3)nc3n2CCN(C(=O)CN)C3(C)C)cc1 [Compound 704, 2-amino-1-(2-(4-fluorophenyl)-8,8-dimethyl-3-p-tolyl-5,6-dihydroimidazo-[1,2-a]pyrazin-7(8H)-yl)ethanone]
EC50 [1]: 236 nM
EC50 ([2]; Plasmodium falciparum): 232 nM

Cc1ccc(Nc2c(-c3ccc(F)cc3)nc3n2CCN(C(=O)C(N)CC(F)(F)F)C3)cc1 (stereo not shown) [Compound 142]
EC50 [1]: 80 nM
EC50 [2]: 120 nM

CC1(C)c2nc(-c3ccc(F)cc3)c(Nc3cccc(C(F)(F)F)c3)n2CCN1C(=O)CN [Compound 652]
EC50 [1]: 19 nM
EC50 ([2]; Plasmodium falciparum): 12 nM

CC(C)(C)CC(C)(C)Nc1c(C(c2ccccc2)c2ccccc2)nc2ccccn12 [Compound 739]
EC50 [1]: 768 nM
EC50 ([2]; Plasmodium falciparum): 881 nM

O=C(CN1CCS(=O)(=O)CC1)N1CCn2c(nc(-c3ccc(F)cc3)c2Nc2ccc(F)cc2)C1 [Compound 42]
EC50 [1]: 6100 nM
EC50 [2]: 4610 nM

Cc1ccc(Nc2c(-c3ccncc3)nc3n2CCN(C(=O)CN)C3)cc1 [Compound 382]
EC50 [1]: 1050 nM
EC50 [2]: 1040 nM

CC(C)[C@@H](N)C(=O)N1CCn2c(nc(-c3ccc(F)cc3)c2Nc2ccc(Cl)c(F)c2)C1 [Compound 318]
EC50 [1]: 150 nM
EC50 [2]: 98 nM

CC(C)(N)C(=O)N1CCn2c(nc(-c3ccc(F)cc3)c2Nc2ccc(C(F)(F)F)c(Cl)c2)C1 [Compound 633]
EC50 [1]: 528 nM
EC50 ([2]; Plasmodium falciparum): 331 nM

Cc1ccc(Nc2c(-c3ccc(F)cc3)nc3n2CCN(C(=O)C(O)c2cccc(C(F)(F)F)c2)C3)cc1 (stereo not shown) [Compound 124]
EC50 [1]: 40 nM
EC50 [2]: 28 nM

CN(c1ccc(Cl)c(F)c1)c1c(-c2ccc(F)cc2)nc2n1CCN(C(=O)C(C)(C)N)C2 [Compound 294]
EC50 [1]: 110 nM
EC50 [2]: 113 nM

Cc1ccc(Nc2c(-c3ccc(F)cc3)nc3n2CCN(C(=O)C2CCOCC2)C3)cc1 [Compound 209]
EC50 [1]: 11600 nM
EC50 [2]: 4360 nM

CC(C)(N)C(=O)N1CCn2c(nc(C3CCCCC3)c2Nc2ccc(F)cc2)C1 [Compound 15]
EC50 [1]: 2630 nM
EC50 [2]: 2110 nM

Cc1ccc(Nc2c(-c3ccc(F)cc3)nc3n2CCN(C(=O)[C@H](O)C2CCCCC2)C3)cc1 [Compound 121]
EC50 [1]: 20 nM
EC50 [2]: 33 nM

NCC(=O)N1CCn2c(nc(-c3ccc(F)cc3)c2Nc2cc(F)cc(F)c2)C1 [Compound 67]
EC50 [1]: 190 nM
EC50 [2]: 197 nM

CC(C)(C)C1CCC(Nc2c(-c3ccc(F)cc3)nc3n2CCN(C(=O)CN)C3(C)C)CC1 (stereo not shown) [Compound 663]
EC50 [1]: 1060 nM
EC50 ([2]; Plasmodium falciparum): 1660 nM

CC1(C)c2nc(-c3ccc(F)cc3)cn2CCN1C(=O)C(N)CCc1cccc(F)c1 (stereo not shown) [Compound 701]
EC50 [1]: 8270 nM
EC50 ([2]; Plasmodium falciparum): 7350 nM

CC1(C)c2nc(-c3ccc(F)cc3)cn2CCN1C(=O)C(N)CCc1ccc(Cl)cc1 (stereo not shown) [Compound 702]
EC50 [1]: 6030 nM
EC50 ([2]; Plasmodium falciparum): 5850 nM

Cc1ccc(Nc2c(-c3ccc(F)cc3)nc3n2CCN(C(=O)[C@@H](O)CCc2ccccc2)C3)cc1 [Compound 118]
EC50 [1]: 150 nM
EC50 [2]: 135 nM

NCC(=O)N1CCn2c(nc(-c3ccc(F)cc3)c2Nc2ccc(C(F)(F)F)cc2)C1 [Compound 73]
EC50 [1]: 80 nM
EC50 [2]: 59 nM

CC(C)(N)C(=O)N1CCn2c(nc(-c3ccc(F)cc3)c2Nc2ccc(Cl)cc2)C1 [Compound 39]
EC50 [1]: 20 nM
EC50 [2]: 24 nM

Cc1ccc(-c2nc3n(c2Nc2ccc(F)cc2)CCN(C(=O)CN)C3)cc1 [Compound 52]
EC50 [1]: 3140 nM
EC50 [2]: 3360 nM

CCc1ccc(Nc2c(-c3ccc(F)cc3)nc3n2CCN(C(=O)C(C)(C)N)C3)cc1 [Compound 641]
EC50 [1]: 799 nM
EC50 ([2]; Plasmodium falciparum): 1280 nM

Cc1ccc(Nc2c(-c3ccc(F)cc3)nc3n2CCN(C(=O)[C@H](C)N(C)Cc2ccccc2)C3)cc1 [Compound 388]
EC50 [1]: 3220 nM
EC50 [2]: 1770 nM

Cc1cc(C)cc([S+]([O-])c2c(-c3ccc(F)cc3)nc3n2CCN(C(=O)CN)C3(C)C)c1 (stereo not shown) [Compound 722]
EC50 [1]: 381 nM
EC50 ([2]; Plasmodium falciparum): 281 nM

CC(C)(C)CC(C)(C)Nc1c(-c2ccccc2OC(F)F)nc2ccccn12 [Compound 742]
EC50 [1]: 6430 nM
EC50 ([2]; Plasmodium falciparum): 11600 nM

Cc1ccc(Nc2c(-c3ccc(F)c(F)c3)nc3n2CCN(C(=O)CN)C3)cc1 [Compound 385]
EC50 [1]: 20 nM
EC50 [2]: 20 nM

Cc1ccc(Nc2c(-c3ccc(F)cc3)nc3n2CCN(C(=O)C(Nc2ccc(C)cc2)c2ccccc2)C3)cc1 (stereo not shown) [Compound 371]
EC50 [1]: 1520 nM
EC50 [2]: 1280 nM

Cn1cc(CC(=O)N2CCn3c(nc(-c4ccc(F)cc4)c3Nc3ccc(Cl)c(F)c3)C2)c2ccccc21 [Compound 357]
EC50 [1]: 7490 nM
EC50 [2]: 4710 nM

CC(C)(N)C(=O)N1CCn2c(nc(-c3ccc(F)cc3)c2Nc2cccnc2)C1 [Compound 16]
EC50 [1]: 14100 nM
EC50 [2]: 3320 nM

CCN(CC)c1ccc(CN2CCn3c(nc(-c4ccc(F)cc4)c3Nc3ccc(C)cc3)C2)cc1 [Compound 182]
EC50 [1]: 1370 nM
EC50 [2]: 1080 nM

Cc1ccc(Nc2c(-c3ccc(F)cc3)nc3ccc(C)cn23)cc1 [Compound 748]
EC50 [1]: 3440 nM
EC50 ([2]; Plasmodium falciparum): 4150 nM

Cc1ccc(Nc2c(-c3ccc(F)cc3)nc3n2CC(C)NC3)cc1 (stereo not shown) [Compound 329]
EC50 [1]: 150 nM
EC50 [2]: 116 nM

CC1(C)c2nc(-c3ccc(F)cc3)c(Cc3ccc(F)c(F)c3)n2CCN1C(=O)CN [Compound 696]
EC50 [1]: 20 nM
EC50 ([2]; Plasmodium falciparum): 22 nM

Cc1ccc(Nc2c(-c3ccc(F)cc3)nc3n2CCN(C(=O)[C@@H](N)CO)C3)cc1 [Compound 163]
EC50 [1]: 20 nM
EC50 [2]: 26 nM

CC(=O)NCCCC[C@H](N)C(=O)N1CCn2c(nc(-c3ccc(F)cc3)c2Nc2ccc(C)cc2)C1 [Compound 101]
EC50 [1]: 5090 nM
EC50 [2]: 4370 nM

CC1(C)c2nc(-c3ccc(F)cc3)c(-c3ccc(F)cc3)n2CCN1C(=O)CN [Compound 705]
EC50 [1]: 1240 nM
EC50 ([2]; Plasmodium falciparum): 760 nM

Cc1ccc(Nc2c(-c3ccc(F)c(F)c3)nc3n2CCN(C(=O)[C@H](O)C(C)C)C3)cc1 [Compound 391]
EC50 [1]: 10 nM
EC50 [2]: 7 nM
